Source: patent US20240165281A1, “DUAL MODE RADIOTRACER AND THERAPEUTICS” (Technische Universität München, priority 2021, published 2024)

Experiments:
[1] = target: T1, PSMA (Homo sapiens, UniProt Q04609); test: PSMA affinity (IC50), competition with [125I]I-BA-KuE on LNCaP cells; assay type: binding; conditions: natLu complex, on ice 60 min, read-out: IC50
T1 construct: PSMA-positive LNCAP cells (300265; Cell Lines Service, Eppelheim, Germany); host or cells: LNCaP cells
Method: A mixture of trypsin and EDTA (0.05%, 0.02%) in PBS (Biochrom) was used in order to harvest cells. Cells were counted with a Neubauer hemocytometer (Paul Marienfeld, Lauda-Königshofen, Germany).
Affinity Determinations (IC50)
In the case of metal-complexed ligands, the crude reaction mixture was diluted analogously, without further purification. Cells were harvested 24±2 hours prior to the experiment and seeded in 24-well plates (1.5×10^5 cells in 1 mL/well). […] The media of both steps were combined in one fraction and represent the amount of free radioligand. Afterwards, the cells were lysed with 250 μL of 1 M aqueous NaOH for at least 10 min. After a washing step (250 μL of 1 M NaOH), both fractions, representing the amount of bound ligand, were united. Quantification of all collected fractions was accomplished in a γ-counter. PSMA-affinity determinations were carried out at least three times per ligand.

[2] = Apparent molecular weight (MWapp)
[3] = Octanol-water partition coefficient (log D7.4); assay type: physicochemical; conditions: PBS pH 7.4 / n-octanol, 177Lu-labelled
Method: Octanol-Water Partition Coefficient (log D7.4)
Approximately 1 MBq of the labelled tracer was dissolved in 1 mL of a 1:1 mixture (v/v) of PBS (pH 7.4) and n-octanol in a reaction vial (1.5 mL). After vigorous mixing of the suspension for 3 minutes at room temperature, the vial was centrifuged at 15000 g for 3 minutes (Biofuge 15, Heraus Sepatech, Osterode, Germany) and 100 μL aliquots of both layers were measured in a gamma counter. The experiment was repeated at least six times.

[4] = test system: LNCaP tumor-bearing male CB-17 SCID mice; test: Biodistribution studies 24 h p.i.
Method: Approximately 3-7 MBq (0.1-0.2 nmol) of the radioactive-labelled PSMA inhibitors were injected into the tail vein of LNCaP tumor-bearing male CB-17 SCID mice and sacrificed after 24 h post injection. Selected organs were removed, weighted and measured in a γ-counter. Results are all decay corrected and given in % injected dose per gram of tissue (% iD/g). Tumor-to-organ ratios are calculated from animals' individual ratios and are given as mean±standard deviation.

[5] = target: T2, Human Serum Albumin (HSA) (Homo sapiens, UniProt P02768); test: Human serum albumin (HSA) binding by high performance affinity chromatography (HPAC); assay type: in vitro ADME; conditions: Chiralpak HSA column
T2 construct: purchased Daicel H13H-2433
T2 sequence (P02768 25-609): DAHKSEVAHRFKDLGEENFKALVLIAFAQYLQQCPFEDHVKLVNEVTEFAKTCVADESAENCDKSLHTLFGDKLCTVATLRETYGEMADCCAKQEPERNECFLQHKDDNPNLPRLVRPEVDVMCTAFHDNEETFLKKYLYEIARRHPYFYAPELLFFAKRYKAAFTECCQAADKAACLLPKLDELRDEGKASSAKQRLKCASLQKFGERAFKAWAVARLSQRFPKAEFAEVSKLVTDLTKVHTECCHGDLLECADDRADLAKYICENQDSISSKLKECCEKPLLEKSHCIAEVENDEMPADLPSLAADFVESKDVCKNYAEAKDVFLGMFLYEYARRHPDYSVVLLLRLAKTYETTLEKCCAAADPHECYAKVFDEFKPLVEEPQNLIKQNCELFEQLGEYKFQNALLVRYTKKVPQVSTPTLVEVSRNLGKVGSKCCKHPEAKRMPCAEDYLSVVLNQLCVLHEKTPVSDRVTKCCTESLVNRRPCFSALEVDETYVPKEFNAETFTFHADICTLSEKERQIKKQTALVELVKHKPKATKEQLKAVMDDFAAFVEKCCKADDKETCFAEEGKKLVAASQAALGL
Method: Determination of Human Serum Albumin (HSA) Binding by High Performance Affinity Chromatography (HPAC)
HSA binding of the PSMA-addressing ligands was determined according to a previously published procedure via HPLC (Valko, K.; Nunhuck, S.; Bevan, C.; Abraham, M. H.; Reynolds, D. P. Journal of pharmaceutical sciences 2003, 92, 2236-2248). A Chiralpak HSA column (50×3 mm, 5 μm, H13H-2433, Daicel, Tokyo, Japan) was used at a constant flow rate of 0.5 mL/min at rt. Mobile phase A was a freshly prepared 50 mM aqueous solution of NH4OAc (pH 6.9) and mobile phase B was isopropanol (HPLC grade, VWR). The applied gradient for all experiments was 100% A (0 to 3 min), followed by 80% A (3 to 40 min). Prior to the experiment, the column was calibrated using nine reference substances with a HSA binding, known from literature, in the range of 13 to 99% (Valko, K.; Nunhuck, S.; Bevan, C.; Abraham, M. H.; Reynolds, D. P. Journal of pharmaceutical sciences 2003, 92, 2236-2248; Yamazaki, K.; Kanaoka, M. Journal of Pharmaceutical sciences 2004, 93, 1480-1494). All substances, including the examined PSMA ligands, were dissolved in a 1:1 mixture (v/v) of isopropanol and a 50 mM aqueous solution of NH4OAc (pH6.9) with a final concentration of 0.5 mg/mL. Non-linear regression was established with the OriginPro 2016G software (Northampton, United States) (FIG. 8).

[6] = test system: LNCaP cells; test: Internalization studies in LNCaP cells; assay type: cell-based; conditions: 37° C., 60 min, normalized to reference
Method: PSMA-positive LNCAP cells (300265; Cell Lines Service, Eppelheim, Germany) were cultivated in Dulbecco modified Eagle medium/Nutrition Mixture F-12 with Glutamax (1:1) (DMEM-F12, Biochrom, Berlin, Germany) supplemented with fetal bovine serum (10%, FBS Zellkultur, Berlin, Germany) and kept at 37° C. in a humidified CO2 atmosphere (5%). A mixture of trypsin and EDTA (0.05%, 0.02%) in PBS (Biochrom) was used in order to harvest cells. Cells were counted with a Neubauer hemocytometer (Paul Marienfeld, Lauda-Königshofen, Germany).
For internalization studies, LNCaP cells were harvested 24±2 hours before the experiment and seeded in poly-L-lysine coated 24-well plates (1.25×10^5 cells in 1 mL/well, Greiner Bio-One, Kremsmünster, Austria). After removal of the culture medium, the cells were washed once with 500 μL DMEM-F12 (5% BSA) and left to equilibrate for at least 15 min at 37° C. in […] DMEM-F12 (5% BSA). Each well was treated with either 25 μL of either DMEM-F12 (5% BSA, control) or 25 μL of a 100 μM PMPA (2-(Phosphonomethyl)-pentandioic acid, Tocris Bioscience, Bristol, UK) solution in PBS, for blockade. Next, 25 μL of the radioactive-labelled PSMA inhibitor (10.0 nM in DMEM-F12 (5% BSA)) was added and the cells were incubated at 37° C. for 60 min. The experiment was terminated by placing the 24-well plate on ice for 3 min and consecutive removal of the medium. Each well was carefully washed with 250 μL of ice-cold HBSS. Both fractions from the first steps, representing the amount of free radioligand, were combined. Removal of surface bound activity was accomplished by incubation of the cells with 250 μL of ice-cold PMPA (10 μM in PBS) solution for 5 min and rinsed again with another 250 μL of ice-cold PBS. The internalized activity was determined by incubation of the cells in 250 μL […] aqueous NaOH for at least 10 min. The obtained fractions were combined with those of the subsequent wash step with 250 μL 1 M aqueous NaOH. Each experiment (control and blockade) was performed in triplicate. Free, surface bound and internalized activity was quantified in a y-counter. All internalization studies were accompanied by external reference studies, using ([^125I]I-BA)KuE (c=0.2 nM), which were performed analogously. Data were corrected for non-specific binding and normalized to the specific-internalization observed for the radioiodinated reference compound.

[7] = Wängler et al. 2010; cited from earlier work

T1 sequence (Q04609 whole entry): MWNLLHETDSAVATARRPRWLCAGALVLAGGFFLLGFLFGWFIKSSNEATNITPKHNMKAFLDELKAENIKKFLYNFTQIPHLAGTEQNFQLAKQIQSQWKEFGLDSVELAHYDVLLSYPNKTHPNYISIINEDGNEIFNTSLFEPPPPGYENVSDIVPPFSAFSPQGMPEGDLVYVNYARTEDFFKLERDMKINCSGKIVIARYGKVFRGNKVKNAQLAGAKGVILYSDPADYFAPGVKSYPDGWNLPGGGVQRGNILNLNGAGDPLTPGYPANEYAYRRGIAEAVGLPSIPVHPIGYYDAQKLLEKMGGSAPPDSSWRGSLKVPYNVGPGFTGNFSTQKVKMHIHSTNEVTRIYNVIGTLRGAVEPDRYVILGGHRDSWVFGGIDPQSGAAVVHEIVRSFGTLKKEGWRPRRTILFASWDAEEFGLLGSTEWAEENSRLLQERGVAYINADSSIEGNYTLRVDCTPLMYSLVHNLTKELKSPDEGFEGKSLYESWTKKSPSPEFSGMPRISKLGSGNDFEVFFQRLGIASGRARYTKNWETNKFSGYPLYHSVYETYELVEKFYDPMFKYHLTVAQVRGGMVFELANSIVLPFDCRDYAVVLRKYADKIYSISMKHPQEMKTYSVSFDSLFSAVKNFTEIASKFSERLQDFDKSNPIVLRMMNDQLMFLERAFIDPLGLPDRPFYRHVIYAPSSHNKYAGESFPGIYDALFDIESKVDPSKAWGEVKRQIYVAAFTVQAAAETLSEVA

Compound CC(C)(C)[Si](F)(c1ccc(C(=O)NC[C@@H](NC(=O)[C@@H](CCCNC(N)=O)NC(=O)CC[C@@H](C(=O)O)N2CCN(CC(=O)O)CCN(CC(=O)O)CCN(CC(=O)O)CC2)C(=O)NCCCCCC(=O)NCCC[C@@H](NC(=O)CC[C@H](NC(=O)N[C@@H](CCC(=O)O)C(=O)O)C(=O)O)C(=O)O)cc1)C(C)(C)C [Compound 2C014] has an IC50 [1] of 3.95 ± 1.36 nM, an MWapp [2] of 19.2 kDa and a logD7.4 [3] of −3.37 ± 0.10. For the same compound, the “In vivo biodistribution (24 h p.i.) blood” value ([4]; Table 6) was 0.0014 ± 0.0006 % iA/g, the “In vivo biodistribution (24 h p.i.) kidney” value ([4]; Table 6) was 2.77 ± 0.84 % iA/g and the “In vivo biodistribution (24 h p.i.) tumor” value ([4]; Table 6) was 16.54 ± 3.37 % iA/g. It also gave an uptake in adrenals ([4]; mean) of 0.1473 % iD/g, an uptake in blood ([4]; mean) of 0.0014 % iD/g and an uptake in bone ([4]; mean) of 0.0327 % iD/g. For the same compound, the uptake in heart ([4]; mean) was 0.0245 % iD/g, the uptake in intestine ([4]; mean) was 0.1006 % iD/g and the uptake in kidney ([4]; mean) was 2.7708 % iD/g. For the same compound, the uptake in liver ([4]; mean) was 0.2376 % iD/g, the uptake in lung ([4]; mean) was 0.0654 % iD/g and the uptake in muscle ([4]; mean) was 0.0107 % iD/g. The uptake in pancreas ([4]; mean) was 0.0192 % iD/g, the “uptake in parotid gl.” value ([4]; mean) was 0.09 % iD/g and the uptake in spleen ([4]; mean) was 0.4296 % iD/g. For the same compound, the uptake in stomach ([4]; mean) was 0.0367 % iD/g, the “uptake in submand. gl.” value ([4]; mean) was 0.0555 % iD/g and the uptake in tumor ([4]; mean) was 16.5415 % iD/g. The “HSA (HPAC)” value [5] was 94.6% and the Internalization [6] was 235 ± 20 % IBA.

For SIFA-Asn(AcNH-β-Glc)-Tyr^3 -octreotate, the “log P(ow)” value [7] is given as 1.23.

In the case of “SIFA-Asn(AcNH-β-Glc)-PEG-Tyr^3 -octreotate”, the “log P(ow)” value [7] is given as 0.96.
